# From patent publication US7314709B2, “Compositions and methods for detecting and quantifying COX-2 activity by lipoamino acid metabolism” (Vanderbilt University, priority 2002, dated 2008)
# Substitutions are numbered along the chain they refer to.
# Key:
# Type in all cases: biochemical, murine
# mCOX-2 Y385F = molecular target: T1, mCOX-2 Y385F (Mus musculus, UniProt Q05769, Y371F); test: O2 uptake with mCOX-2 site-directed mutant Y385F
# T1 construct: made in house; host or cells: Sf-9 insect cells
# T1 sequence (Q05769 18-604 Y371F): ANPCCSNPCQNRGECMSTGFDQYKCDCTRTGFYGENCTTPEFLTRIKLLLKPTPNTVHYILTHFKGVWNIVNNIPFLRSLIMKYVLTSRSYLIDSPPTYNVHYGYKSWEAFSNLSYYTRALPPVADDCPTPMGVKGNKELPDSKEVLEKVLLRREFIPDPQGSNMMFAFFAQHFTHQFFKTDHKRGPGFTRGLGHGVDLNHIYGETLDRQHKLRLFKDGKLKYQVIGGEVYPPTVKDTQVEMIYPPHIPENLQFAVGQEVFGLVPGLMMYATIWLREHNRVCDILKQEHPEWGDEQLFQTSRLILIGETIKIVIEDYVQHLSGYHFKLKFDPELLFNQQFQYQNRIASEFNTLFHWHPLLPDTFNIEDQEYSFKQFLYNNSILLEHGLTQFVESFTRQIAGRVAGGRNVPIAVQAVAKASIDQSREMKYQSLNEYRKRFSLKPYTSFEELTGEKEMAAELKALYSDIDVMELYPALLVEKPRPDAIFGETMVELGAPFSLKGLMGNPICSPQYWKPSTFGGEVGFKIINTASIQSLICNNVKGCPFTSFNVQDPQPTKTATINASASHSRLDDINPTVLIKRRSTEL
# Procedure: (§1) Enzymology: COX-1 was purified from ram seminal vesicles as previously described. Site-directed mutagenesis of COX-2 was performed as described previously. Recombinant COX-2 enzymes were expressed in Sf-9 insect cells and purified by ion-exchange chromatography and gel filtration as previously described. Apo-enzymes were reconstituted with hematin prior to activity assays.
# (§2) COX activity was quantified as previously described. Initial reaction velocity data were obtained from the linear portion of the oxygen uptake curves. Oxygraph data were analyzed by nonlinear regression with Enzyme Kinetics 1.5 software (Trinity Software, Campton, N.H.).
# AA binds in the COX active site with the […] near Gly-533 [20,27].
# mCOX-2 R120Q = molecular target: T2, mCOX-2 R120Q (Mus musculus, UniProt Q05769, R106Q); test: Initial O2 uptake rate with constriction site mutant R120Q; conditions: 200 nM enzyme; AA 100 μM, NAGly 200 μM
# T2 construct: made in house; host or cells: Sf-9 insect cells
# T2 sequence (Q05769 18-604 R106Q): T1 sequence (Q05769 18-604 Y371F) with R89Q, F354Y
# Procedure: as §1, §2
# (§3) At the bottom of the substrate (and inhibitor) binding site, there is a hydrogen bonding network comprised of residues Arg-120, Tyr-355, and Glu524, that form a constriction which is present in both COX isoforms. These residues contribute to the binding of the carboxylate in both AA and NSAIDs, and the glycerol moiety of 2-AG [12,23-27].
# mCOX-2 Y355F = molecular target: T3, mCOX-2 Y355F (Mus musculus, UniProt Q05769, Y341F); test: Initial O2 uptake rate with constriction site mutant Y355F; conditions: 200 nM enzyme; AA 100 μM
# T3 construct: made in house; host or cells: Sf-9 insect cells
# T3 sequence (Q05769 18-604 Y341F): T1 sequence (Q05769 18-604 Y371F) with Y324F, F354Y
# Procedure: as §1, §2, §3
# mCOX-2 R513H = molecular target: T4, mCOX-2 R513H (Mus musculus, UniProt Q05769, R499H); test: Initial O2 uptake rate with side pocket mutant R513H; conditions: 200 nM enzyme; AA 100 μM, NAGly 200 μM
# T4 construct: made in house; host or cells: Sf-9 insect cells
# T4 sequence (Q05769 18-604 R499H): T1 sequence (Q05769 18-604 Y371F) with F354Y, R482H
# Procedure: as §1, §2
# Previous studies have identified residues in the side pocket of COX-2, especially Arg-513, as critical determinants of 2-AG oxygenation by COX-2 [13]. […] (FIG. 5).
compound,measurement,setting,value
"CCCCC/C=C\C/C=C\C/C=C\C/C=C\CCCC(=O)O [AA, arachidonic acid]",substrate oxidation by Y385F,mCOX-2 Y385F,fails to oxidize
same,reduction in initial rate of oxygenation compared with wild-type,mCOX-2 R120Q,< 3 fold
same,reduction in initial rate of oxygenation compared with wild-type,mCOX-2 Y355F,< 3 fold
same,effect of mutation on oxygenation rate,mCOX-2 R513H,did not greatly affect
